Patent publication US9040713B2, “Methods of managing blood sugar levels and compositions related thereto” (EMORY UNIVERSITY, priority 2010, dated 2015)

Legend:
MCF7 cells = experiment: Proliferation of MCF7 cells; type: cell-based
IR = IR (Homo sapiens, UniProt P06213); experiment: IR phosphorylation in transfected HEK293 cells (Western blot); type: cell-based; parameters: expressed in transfected cells; host or cells: HEK293; conditions: 4524-E7 5 μM, insulin 100 nM
Description: Cells were lysed, and IR phosphorylations were tested by ELISA. The IR phosphorylation activities of the tested compounds were expressed as a percentage of the vehicle. […] The cell lysates were analyzed by immunoblotting with various indicated antibodies. The phosphorylated IR was immunoprecipitated using PY20 and analyzed by immunoblotting with anti-IR13 antibody. […] The phosphorylation of each receptor was determined by Western blot using specific antibodies as indicated. […] Then the cells were lysated and the transfected receptor fused to His tag were pulled down with Ni+ beads, followed by western blot against anti-p-Tyr and anti-His. The cell lysates were tested with anti-p-Akt and anti-Akt.
Whether 4524-E7 can activate other receptors of RTK family was tested. […] To further explore the specificity, several hybrid recombinant RTKs were generated by replacing IGFR and EGFR's extracellular domain (ECD) with IR's ECD. Moreover, IGFR's intracellular domain (ICD) was substituted with IR's ICD, and the His-tagged receptors were transfected into CHO cells and treated with 4524-E7 for 30 min.

GST-EGFRTK = target: T1, GST-EGFRTK (Homo sapiens, UniProt P00533); experiment: In vitro kinase assay (histone H2B phosphorylation); type: biochemical; conditions: different concentrations of 4524-E7
T1 construct: histone phosphorylation by recombinant IGFR or EGFR tyrosine kinase
T1 sequence (P00533 712-979 limits assumed): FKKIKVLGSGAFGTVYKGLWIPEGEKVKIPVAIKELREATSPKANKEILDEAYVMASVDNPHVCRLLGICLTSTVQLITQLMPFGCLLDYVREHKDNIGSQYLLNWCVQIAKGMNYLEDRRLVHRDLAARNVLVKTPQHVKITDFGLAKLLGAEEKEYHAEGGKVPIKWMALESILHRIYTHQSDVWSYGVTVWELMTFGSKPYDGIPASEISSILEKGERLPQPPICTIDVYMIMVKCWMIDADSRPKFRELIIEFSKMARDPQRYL
Description: (§1) Parental CHO cells were used as a negative control (Bottom panel). The fluorescence-labeled cells were analyzed on flow cytometry. (B) 4524-E7 protects IRTK from proteolysis. GST-IRTK was subjected to limited trypsin or chymotrypsin digestion in the presence of 4524-E7 (50 μM), ATPyS (5 μM) or both at 37° C. for 5 min. The reaction mixture was resolved by SDS-PAGE, followed by silver staining Cleaved fragments were asterisked. (C) 4524-E7 increases IRTK activity in vitro. Recombinant GST-IRTK, GST-IGFRTK, and GST-EGFRTK were incubated with different concentrations of 4524-E7 or 10 μM 2—NH2-NQ and the kinase activity was examined by monitoring the phosphorylation of histone H2B. (E) In vitro kinase activity of various IRTK/IGF-1R kinase hybrids. The GFP-tagged kinases were expressed in HEK293, immunoprecipitated and incubated with different concentrations of 4524-E7 as indicated. […] Expressions of the kinases were also verified (lower panel).
(§2) To evaluate if 4524-E7 directly binds to the IR kinase domain, a partial proteolysis assay was performed with recombinant IRTK domain using trypsin or chymotrypsin, which was used before to characterize the interaction between IR and its small molecular ligand DAQ B1. Recombinant GST-tagged IRTK with either DMSO, 50 μM 4524-E7 or ATP-γ-S, were incubated and followed by limited trypsin or chymotrypsin digestion. […]

GST-IGFRTK = target: T2, GST-IGFRTK (Homo sapiens, UniProt P08069); experiment: as above; type: biochemical; conditions: different concentrations of 4524-E7
T2 construct: histone phosphorylation by recombinant IGFR or EGFR tyrosine kinase
T2 sequence (P08069 999-1274 limits assumed): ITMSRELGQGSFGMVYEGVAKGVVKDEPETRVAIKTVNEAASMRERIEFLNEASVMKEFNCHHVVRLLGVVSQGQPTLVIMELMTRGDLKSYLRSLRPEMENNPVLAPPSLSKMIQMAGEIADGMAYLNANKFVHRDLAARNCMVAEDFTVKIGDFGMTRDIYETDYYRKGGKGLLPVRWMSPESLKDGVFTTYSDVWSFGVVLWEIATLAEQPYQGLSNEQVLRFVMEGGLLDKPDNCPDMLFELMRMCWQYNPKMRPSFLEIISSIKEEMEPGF
Description: as §1, §2

GST-IRTK = target: T3, GST-IRTK (Homo sapiens, UniProt P06213); experiment: UV-absorption spectra titration; type: binding
T3 construct: GST-tagged IRTK (GST-IRTK, a.a. 1011-1382); purchased Invitrogen
T3 sequence (P06213 1011-1382): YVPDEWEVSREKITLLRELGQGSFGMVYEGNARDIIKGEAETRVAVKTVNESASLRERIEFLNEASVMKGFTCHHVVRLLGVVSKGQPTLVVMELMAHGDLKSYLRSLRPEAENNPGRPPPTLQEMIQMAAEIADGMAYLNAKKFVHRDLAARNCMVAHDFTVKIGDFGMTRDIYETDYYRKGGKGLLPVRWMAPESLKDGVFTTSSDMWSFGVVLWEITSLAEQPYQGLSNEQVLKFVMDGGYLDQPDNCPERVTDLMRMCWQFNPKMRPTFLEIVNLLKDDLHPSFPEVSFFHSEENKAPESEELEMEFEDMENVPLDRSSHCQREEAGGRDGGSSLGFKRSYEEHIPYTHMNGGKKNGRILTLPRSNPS
Description: UV-Vis absorption for protein binding was obtained using the Cary 300 UV-Visible spectrophotometer (Varian Inc., Palo Alto, Calif.) equipped with 1.0 cm quartz cells. The spectra were scanned from 200 to 800 nm in Tris buffer (0.01M Tris, 0.05M NaCl, 10 mM MgCl2, pH 7.8). During the spectrophotometric titrations, protein (GST or GST-IRTK) was added to a cell containing a constant amount of compound. The absorbances at 602 nm were recorded (data were read for three times and mean value was obtain by averaging) and the obtained data were processed with KaleidaGraph (Synergy Software). Repeated measurements were done for all the samples and no significant differences were observed (The reproducibility errors is less than 5%). Binding results from the UV titration experiments were fit with a one site interaction model: r=K*Cfree/(1+K*Cfree) Where r represents the moles of bound compound per mole of protein, K is macroscopic binding constants, and Cfree is the free compound concentration in equilibrium with the complex. Insulin Competition Assay
Several small molecules bind to the intracellular kinase domain of IR (IRTK) and provoke its activation. DDN might also interact with the IRTK to activate IR. To test this possibility, an UV-absorption spectra analysis was performed using recombinant IRTK. […]

IR, sequence (P06213 28-1382): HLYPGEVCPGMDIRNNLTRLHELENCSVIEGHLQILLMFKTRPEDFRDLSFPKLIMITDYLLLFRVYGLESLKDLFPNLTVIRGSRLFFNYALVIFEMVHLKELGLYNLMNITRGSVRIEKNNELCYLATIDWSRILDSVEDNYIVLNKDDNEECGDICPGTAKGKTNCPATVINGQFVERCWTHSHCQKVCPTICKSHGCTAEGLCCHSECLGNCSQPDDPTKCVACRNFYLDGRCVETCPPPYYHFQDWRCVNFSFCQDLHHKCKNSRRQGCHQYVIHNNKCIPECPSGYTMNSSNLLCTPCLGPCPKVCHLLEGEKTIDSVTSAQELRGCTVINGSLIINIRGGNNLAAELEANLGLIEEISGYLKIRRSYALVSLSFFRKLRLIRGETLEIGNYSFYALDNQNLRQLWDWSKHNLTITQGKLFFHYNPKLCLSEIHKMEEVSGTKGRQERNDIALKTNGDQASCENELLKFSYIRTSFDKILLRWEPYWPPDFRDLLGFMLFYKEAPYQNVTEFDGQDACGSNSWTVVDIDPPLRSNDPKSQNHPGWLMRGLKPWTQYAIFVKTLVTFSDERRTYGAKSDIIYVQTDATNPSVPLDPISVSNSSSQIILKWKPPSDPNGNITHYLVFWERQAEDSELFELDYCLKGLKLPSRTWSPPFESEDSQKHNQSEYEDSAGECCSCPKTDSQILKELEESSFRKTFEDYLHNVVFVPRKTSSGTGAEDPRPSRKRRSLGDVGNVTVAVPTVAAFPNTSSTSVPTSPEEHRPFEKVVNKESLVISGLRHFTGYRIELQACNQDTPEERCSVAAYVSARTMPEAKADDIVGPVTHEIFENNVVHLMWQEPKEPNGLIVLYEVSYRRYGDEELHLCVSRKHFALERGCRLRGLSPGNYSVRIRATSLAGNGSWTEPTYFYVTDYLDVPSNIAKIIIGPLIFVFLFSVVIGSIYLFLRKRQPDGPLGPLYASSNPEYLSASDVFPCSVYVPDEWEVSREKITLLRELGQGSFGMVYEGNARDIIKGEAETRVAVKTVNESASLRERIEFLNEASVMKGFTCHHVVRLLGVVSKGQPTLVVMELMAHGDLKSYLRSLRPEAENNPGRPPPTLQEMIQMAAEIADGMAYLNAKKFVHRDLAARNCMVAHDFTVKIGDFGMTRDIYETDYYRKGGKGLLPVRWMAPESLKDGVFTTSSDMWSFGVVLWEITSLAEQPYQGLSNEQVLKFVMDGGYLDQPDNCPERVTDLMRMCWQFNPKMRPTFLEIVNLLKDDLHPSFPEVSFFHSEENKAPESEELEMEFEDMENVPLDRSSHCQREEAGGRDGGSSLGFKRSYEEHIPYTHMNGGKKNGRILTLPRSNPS

Row | IR activation (IR) | EGFR tyrosine kinase activity (histone phosphorylation) (GST-EGFRTK) | IGFR tyrosine kinase activity (histone phosphorylation) (GST-IGFRTK) | Kd (GST-IRTK; UV titration, absorbance at 602 nm, read-out: binding constant Kd) | SMILES | proliferation of MCF7 cells (MCF7 cells) | peak absorption at 560 and 602 nm in presence of GST-IRTK (GST-IRTK; spectra 200 to 800 nm)
1 | selectively activated | no effect | no effect | – | O=C1c2ccccc2C(=O)C2SC(Nc3ccc(Cl)cc3)=NC12 (stereo not drawn) [4524-E7, 2-((4-chlorophenyl)amino)naphtho[2,3-d]thiazole-4,9(3aH,9aH)-dione] | not able to induce the proliferation of MCF7 cells | –
2 | – | – | – | ~3.27 µM | CC(=O)Oc1ccc(OC(C)=O)c2c1C(=O)C(Cl)=C(Cl)C2=O [DDN, 5,8-diacetyloxy-2,3-dichloro-1,4-naphthoquinone] | – | enhanced the peak absorption at 560 and 602 nm
